# Results from paper PMC6757289, “Design and Characterization of SGK3-PROTAC1, an Isoform Specific SGK3 Kinase PROTAC Degrader” (ACS Chemical Biology, 2019).
# Read-outs that look alike come from different tables or passages of the source.
# Experiments:
# Assay in all cases: kinase profiling panel
# Type in all cases: biochemical
# Settings in all cases: read-out: % Activity Remaining
# PKB beta = PKB beta (Homo sapiens, UniProt P31751)
# Source text: (§1) Protein kinase profiling against a Dundee panel of 140 protein kinases was undertaken at the International Centre for Protein Kinase Profiling. The result for each kinase was presented as a mean kinase activity of the reaction taken in triplicate relative to a control sample treated with DMSO. Assay conditions and abbreviations are available at http://www.kinase-screen.mrc.ac.uk.
# PKC alpha = PKC alpha (Homo sapiens, UniProt P17252)
# Source text: as §1
# IR = IR (Homo sapiens, UniProt P06213)
# Source text: as §1
# CHK2 = CHK2 (Homo sapiens, UniProt O96017)
# Source text: as §1
# VEGFR1 = VEGFR1 (Homo sapiens, UniProt P17948)
# Source text: as §1
# ABL = ABL (Homo sapiens, UniProt P00519)
# Source text: as §1
# ERK5 = ERK5 (Homo sapiens, UniProt Q13164)
# Chain of ERK5 (Q13164 whole entry): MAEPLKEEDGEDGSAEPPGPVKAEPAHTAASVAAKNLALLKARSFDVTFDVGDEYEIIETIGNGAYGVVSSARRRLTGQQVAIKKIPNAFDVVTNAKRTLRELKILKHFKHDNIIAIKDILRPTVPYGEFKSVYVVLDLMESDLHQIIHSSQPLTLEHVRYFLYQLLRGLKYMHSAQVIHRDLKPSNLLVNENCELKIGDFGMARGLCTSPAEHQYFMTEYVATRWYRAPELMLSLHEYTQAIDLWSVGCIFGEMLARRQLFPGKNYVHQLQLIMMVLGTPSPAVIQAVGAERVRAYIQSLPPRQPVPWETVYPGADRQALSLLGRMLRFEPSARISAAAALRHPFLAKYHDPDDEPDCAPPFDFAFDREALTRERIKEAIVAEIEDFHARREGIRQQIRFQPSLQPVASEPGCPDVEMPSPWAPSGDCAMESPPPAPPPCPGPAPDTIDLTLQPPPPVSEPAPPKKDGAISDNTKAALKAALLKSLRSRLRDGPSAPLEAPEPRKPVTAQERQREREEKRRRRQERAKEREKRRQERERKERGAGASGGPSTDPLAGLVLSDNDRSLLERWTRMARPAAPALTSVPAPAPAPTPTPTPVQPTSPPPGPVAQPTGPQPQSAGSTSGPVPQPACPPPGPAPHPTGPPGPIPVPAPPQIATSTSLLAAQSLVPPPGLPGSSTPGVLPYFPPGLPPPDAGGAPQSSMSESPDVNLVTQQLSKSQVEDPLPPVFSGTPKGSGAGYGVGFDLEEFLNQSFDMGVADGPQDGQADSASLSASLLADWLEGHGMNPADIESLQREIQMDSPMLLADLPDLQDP
# Source text: as §1
# WNK1 = WNK1 (Homo sapiens, UniProt Q9H4A3)
# Source text: as §1
# EIF2AK3 = target: T1, EIF2AK3 (Homo sapiens, UniProt Q9NZJ5)
# T1 sequence (Q9NZJ5 30-1116): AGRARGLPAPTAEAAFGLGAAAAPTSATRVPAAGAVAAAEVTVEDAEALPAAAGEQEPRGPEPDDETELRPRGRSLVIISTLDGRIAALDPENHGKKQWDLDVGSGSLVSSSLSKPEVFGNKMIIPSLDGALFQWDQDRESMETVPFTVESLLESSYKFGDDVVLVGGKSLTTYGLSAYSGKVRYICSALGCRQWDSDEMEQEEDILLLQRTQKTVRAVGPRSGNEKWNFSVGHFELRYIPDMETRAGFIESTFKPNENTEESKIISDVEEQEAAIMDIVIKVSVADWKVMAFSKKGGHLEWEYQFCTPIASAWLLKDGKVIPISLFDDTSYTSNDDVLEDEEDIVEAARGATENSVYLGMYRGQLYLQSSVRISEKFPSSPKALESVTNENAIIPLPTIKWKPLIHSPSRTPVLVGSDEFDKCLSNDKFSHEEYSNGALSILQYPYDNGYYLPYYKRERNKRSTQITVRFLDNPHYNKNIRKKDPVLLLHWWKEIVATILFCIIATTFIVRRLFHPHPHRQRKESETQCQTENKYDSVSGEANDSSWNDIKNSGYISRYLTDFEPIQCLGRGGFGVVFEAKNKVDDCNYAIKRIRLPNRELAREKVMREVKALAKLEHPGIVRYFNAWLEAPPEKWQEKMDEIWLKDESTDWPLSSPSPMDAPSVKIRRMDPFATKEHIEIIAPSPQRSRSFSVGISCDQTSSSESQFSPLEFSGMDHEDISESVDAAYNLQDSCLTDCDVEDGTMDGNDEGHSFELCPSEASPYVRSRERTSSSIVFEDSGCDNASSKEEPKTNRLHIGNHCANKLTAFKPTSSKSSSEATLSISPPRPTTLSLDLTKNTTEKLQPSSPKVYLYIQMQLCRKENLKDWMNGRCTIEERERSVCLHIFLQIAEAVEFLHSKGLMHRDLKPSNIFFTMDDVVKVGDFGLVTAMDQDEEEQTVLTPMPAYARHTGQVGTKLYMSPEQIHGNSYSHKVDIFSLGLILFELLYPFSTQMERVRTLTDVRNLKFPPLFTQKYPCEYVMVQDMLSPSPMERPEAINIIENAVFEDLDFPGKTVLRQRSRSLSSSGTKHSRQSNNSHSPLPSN
# Source text: as §1
# JNK3 = JNK3 (Homo sapiens, UniProt P53779)
# Source text: as §1
# OSR1 = OSR1 (Homo sapiens, UniProt O95747)
# Source text: as §1
# MARK1 = MARK1 (Homo sapiens, UniProt Q9P0L2)
# Chain of MARK1 (Q9P0L2 whole entry): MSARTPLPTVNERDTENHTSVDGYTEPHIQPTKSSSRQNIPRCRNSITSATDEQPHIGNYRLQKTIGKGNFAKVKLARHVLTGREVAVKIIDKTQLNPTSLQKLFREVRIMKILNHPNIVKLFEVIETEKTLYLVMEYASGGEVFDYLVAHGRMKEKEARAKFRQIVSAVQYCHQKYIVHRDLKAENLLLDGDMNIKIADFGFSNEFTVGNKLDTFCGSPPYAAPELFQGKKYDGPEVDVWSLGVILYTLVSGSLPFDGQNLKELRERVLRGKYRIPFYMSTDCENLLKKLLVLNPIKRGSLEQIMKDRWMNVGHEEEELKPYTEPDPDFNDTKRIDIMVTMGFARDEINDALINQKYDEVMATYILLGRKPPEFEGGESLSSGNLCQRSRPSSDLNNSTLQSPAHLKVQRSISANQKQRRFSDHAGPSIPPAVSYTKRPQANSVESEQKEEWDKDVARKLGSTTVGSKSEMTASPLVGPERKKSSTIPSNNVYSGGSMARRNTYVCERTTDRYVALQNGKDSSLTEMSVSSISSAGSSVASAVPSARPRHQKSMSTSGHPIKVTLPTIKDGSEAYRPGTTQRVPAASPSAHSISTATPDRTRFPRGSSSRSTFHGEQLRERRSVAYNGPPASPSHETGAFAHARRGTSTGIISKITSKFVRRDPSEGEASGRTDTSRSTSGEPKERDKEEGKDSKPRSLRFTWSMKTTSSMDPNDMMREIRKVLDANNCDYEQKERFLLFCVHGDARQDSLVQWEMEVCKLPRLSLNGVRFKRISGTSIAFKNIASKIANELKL
# Source text: as §1
# IGF-1R = IGF-1R (Homo sapiens, UniProt P08069)
# Chain of IGF-1R (P08069 31-1367): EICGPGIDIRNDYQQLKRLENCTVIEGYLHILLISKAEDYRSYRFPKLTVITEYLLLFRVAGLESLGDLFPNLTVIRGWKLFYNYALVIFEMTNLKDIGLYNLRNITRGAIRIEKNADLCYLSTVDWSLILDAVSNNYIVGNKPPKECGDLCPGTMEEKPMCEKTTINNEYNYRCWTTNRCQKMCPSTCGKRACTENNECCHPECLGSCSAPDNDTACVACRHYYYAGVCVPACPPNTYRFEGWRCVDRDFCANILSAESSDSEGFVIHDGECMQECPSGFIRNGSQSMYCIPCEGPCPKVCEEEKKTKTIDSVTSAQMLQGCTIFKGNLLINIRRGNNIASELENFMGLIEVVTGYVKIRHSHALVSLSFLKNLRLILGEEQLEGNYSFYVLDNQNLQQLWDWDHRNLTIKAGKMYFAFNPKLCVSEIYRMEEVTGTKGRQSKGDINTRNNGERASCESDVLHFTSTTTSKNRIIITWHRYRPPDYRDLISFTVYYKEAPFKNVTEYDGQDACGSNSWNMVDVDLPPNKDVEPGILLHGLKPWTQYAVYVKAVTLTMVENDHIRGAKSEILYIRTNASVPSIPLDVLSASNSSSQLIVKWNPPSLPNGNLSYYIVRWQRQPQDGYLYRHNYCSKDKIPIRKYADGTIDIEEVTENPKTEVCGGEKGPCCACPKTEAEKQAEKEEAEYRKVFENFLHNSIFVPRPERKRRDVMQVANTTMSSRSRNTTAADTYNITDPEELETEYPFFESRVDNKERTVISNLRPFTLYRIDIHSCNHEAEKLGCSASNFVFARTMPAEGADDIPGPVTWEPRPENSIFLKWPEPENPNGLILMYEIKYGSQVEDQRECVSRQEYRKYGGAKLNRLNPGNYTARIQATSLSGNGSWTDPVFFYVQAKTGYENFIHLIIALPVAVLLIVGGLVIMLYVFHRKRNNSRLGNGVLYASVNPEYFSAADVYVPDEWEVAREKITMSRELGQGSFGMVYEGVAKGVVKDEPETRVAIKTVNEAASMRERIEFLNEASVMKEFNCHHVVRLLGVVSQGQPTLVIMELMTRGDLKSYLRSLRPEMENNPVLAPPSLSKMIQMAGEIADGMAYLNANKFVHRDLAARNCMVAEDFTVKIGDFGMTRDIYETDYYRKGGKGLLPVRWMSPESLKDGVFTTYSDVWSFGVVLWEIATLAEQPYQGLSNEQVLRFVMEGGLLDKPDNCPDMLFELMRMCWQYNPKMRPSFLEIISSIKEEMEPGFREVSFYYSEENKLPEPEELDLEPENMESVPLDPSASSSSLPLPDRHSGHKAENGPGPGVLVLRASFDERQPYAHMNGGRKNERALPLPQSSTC
# Source text: as §1
# SRPK1 = SRPK1 (Homo sapiens, UniProt Q96SB4)
# Chain of SRPK1 (Q96SB4 whole entry): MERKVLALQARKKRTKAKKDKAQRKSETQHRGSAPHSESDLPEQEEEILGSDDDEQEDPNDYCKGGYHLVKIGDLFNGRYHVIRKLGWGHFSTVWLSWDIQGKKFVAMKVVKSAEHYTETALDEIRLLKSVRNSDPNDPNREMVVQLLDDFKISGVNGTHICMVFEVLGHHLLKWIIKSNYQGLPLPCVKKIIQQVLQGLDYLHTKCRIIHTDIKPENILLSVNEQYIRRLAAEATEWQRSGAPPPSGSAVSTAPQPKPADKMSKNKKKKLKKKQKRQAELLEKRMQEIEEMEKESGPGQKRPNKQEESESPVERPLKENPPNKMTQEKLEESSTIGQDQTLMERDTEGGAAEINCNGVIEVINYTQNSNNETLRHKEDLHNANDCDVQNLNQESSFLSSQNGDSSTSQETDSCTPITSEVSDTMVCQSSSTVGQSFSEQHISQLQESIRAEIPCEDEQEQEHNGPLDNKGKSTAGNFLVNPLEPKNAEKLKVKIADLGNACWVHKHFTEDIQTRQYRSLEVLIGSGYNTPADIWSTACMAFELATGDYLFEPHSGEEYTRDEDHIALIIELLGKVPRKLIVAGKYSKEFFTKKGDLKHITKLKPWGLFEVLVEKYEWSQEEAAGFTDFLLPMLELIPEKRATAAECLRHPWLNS
# Source text: as §1
# MLK3 = MLK3 (Homo sapiens, UniProt Q16584)
# Source text: as §1
# ERK1 = ERK1 (Homo sapiens, UniProt P27361)
# Chain of ERK1 (P27361 whole entry): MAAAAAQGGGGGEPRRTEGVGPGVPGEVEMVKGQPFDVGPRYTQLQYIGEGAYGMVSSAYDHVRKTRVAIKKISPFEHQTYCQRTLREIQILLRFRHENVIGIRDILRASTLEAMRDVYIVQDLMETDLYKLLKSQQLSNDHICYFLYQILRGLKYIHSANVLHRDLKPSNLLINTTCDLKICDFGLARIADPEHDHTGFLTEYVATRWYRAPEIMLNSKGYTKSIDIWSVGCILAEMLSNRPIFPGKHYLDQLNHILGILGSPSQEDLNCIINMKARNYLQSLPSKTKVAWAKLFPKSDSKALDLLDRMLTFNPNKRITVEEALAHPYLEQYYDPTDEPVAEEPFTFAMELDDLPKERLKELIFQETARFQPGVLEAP
# Source text: as §1
# CSK = CSK (Homo sapiens, UniProt P41240)
# Chain of CSK (P41240 whole entry): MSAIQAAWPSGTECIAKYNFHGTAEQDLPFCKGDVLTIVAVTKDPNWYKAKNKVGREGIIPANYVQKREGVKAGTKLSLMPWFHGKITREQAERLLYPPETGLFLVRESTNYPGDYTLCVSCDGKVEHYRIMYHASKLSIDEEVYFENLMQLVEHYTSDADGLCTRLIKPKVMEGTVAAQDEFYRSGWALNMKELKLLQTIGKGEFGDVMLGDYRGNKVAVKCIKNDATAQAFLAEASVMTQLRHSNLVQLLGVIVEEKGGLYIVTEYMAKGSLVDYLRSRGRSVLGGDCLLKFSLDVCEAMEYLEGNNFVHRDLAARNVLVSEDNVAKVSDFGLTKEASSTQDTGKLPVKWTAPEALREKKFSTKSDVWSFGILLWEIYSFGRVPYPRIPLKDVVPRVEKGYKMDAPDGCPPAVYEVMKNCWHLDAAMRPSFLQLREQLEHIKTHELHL
# Source text: as §1
# PDGFRA = PDGFRA (Homo sapiens, UniProt P16234)
# Source text: as §1
# PDK1 = target: T2, PDK1 (Homo sapiens, UniProt O15530)
# T2 sequence (O15530 1-556): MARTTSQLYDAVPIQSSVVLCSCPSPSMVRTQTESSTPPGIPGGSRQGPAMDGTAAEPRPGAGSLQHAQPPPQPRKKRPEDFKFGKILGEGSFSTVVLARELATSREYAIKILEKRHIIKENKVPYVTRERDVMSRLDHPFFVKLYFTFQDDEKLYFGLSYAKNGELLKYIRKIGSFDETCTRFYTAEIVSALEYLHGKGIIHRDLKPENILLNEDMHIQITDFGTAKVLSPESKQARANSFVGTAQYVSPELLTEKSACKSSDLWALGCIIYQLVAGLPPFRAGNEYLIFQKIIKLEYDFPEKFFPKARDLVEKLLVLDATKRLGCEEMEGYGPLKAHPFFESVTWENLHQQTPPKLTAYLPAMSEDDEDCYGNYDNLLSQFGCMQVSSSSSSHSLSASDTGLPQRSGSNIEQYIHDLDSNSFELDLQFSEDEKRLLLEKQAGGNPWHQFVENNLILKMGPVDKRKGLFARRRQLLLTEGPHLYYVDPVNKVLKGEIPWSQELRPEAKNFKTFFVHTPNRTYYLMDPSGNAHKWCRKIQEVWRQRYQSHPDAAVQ
# Source text: as §1
# TESK1 = TESK1 (Homo sapiens, UniProt Q15569)
# Chain of TESK1 (Q15569 whole entry): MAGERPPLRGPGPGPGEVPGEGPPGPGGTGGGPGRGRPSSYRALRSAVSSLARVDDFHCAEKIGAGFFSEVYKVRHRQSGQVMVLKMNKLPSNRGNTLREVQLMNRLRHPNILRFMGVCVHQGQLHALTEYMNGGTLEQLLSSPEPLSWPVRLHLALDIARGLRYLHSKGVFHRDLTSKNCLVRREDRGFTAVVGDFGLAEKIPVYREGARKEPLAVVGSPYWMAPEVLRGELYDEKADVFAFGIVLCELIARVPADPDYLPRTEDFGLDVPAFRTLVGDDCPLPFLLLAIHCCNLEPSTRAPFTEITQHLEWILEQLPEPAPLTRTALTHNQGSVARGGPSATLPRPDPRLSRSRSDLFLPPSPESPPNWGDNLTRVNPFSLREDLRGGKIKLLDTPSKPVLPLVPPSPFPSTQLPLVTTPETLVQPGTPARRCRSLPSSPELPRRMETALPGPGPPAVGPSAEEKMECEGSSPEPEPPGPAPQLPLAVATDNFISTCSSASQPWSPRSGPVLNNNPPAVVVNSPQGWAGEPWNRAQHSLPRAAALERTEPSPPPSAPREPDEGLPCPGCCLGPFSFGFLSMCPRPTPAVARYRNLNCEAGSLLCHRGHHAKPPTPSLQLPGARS
# Source text: as §1
structure (smiles),measurement,setting,value
Cc1ccc(F)c(S(=O)(=O)Nc2ccc(-c3nc(OC[C@H]4CN(CCCCCCOCCOCCOCC(=O)N[C@H](C(=O)N5C[C@H](O)C[C@H]5C(=O)NCc5ccc(-c6scnc6C)cc5)C(C)(C)C)CCO4)c4cn[nH]c4n3)cc2)c1 [SGK3-PROTAC1],remaining activity at 1 µM,PKB beta; 1 µM,99%
same,remaining activity at 1 µM,PKC alpha; 1 µM,121%
same,remaining activity at 1 µM,IR; 1 µM,103%
same,remaining activity at 1 µM,CHK2; 1 µM,85%
same,remaining activity at 1 µM,VEGFR1; 1 µM,120%
same,remaining activity at 1 µM,ABL; 1 µM,111%
same,remaining activity at 1 µM,ERK5; 1 µM,102%
same,remaining activity at 1 µM,WNK1; 1 µM,94%
same,remaining activity at 1 µM,EIF2AK3; 1 µM,106%
same,remaining activity at 1 µM,JNK3; 1 µM,92%
same,remaining activity at 1 µM,OSR1; 1 µM,103%
same,remaining activity at 1 µM,MARK1; 1 µM,99%
same,remaining activity at 1 µM,IGF-1R; 1 µM,82%
same,remaining activity at 1 µM,SRPK1; 1 µM,96%
same,remaining activity at 1 µM,MLK3; 1 µM,71%
same,remaining activity at 1 µM,ERK1; 1 µM,103%
same,remaining activity at 1 µM,CSK; 1 µM,118%
same,remaining activity at 1 µM,PDGFRA; 1 µM,101%
same,remaining activity at 1 µM,PDK1; 1 µM,99%
same,remaining activity at 1 µM,TESK1; 1 µM,122%
"COc1ccc(Cl)c(S(=O)(=O)Nc2ccc(-c3nc(OC[C@H]4CNCCO4)c4c(C)n[nH]c4n3)cc2)c1 [290-R, reference compound]",remaining activity at 1 µM,PKB beta,55%
same,remaining activity at 1 µM,PKC alpha,113%
same,remaining activity at 1 µM,IR,102%
same,remaining activity at 1 µM,CHK2,9%
same,remaining activity at 1 µM,VEGFR1,82%
same,remaining activity at 1 µM,ABL,88%
same,remaining activity at 1 µM,ERK5,84%
same,remaining activity at 1 µM,WNK1,110%
same,remaining activity at 1 µM,EIF2AK3,66%
same,remaining activity at 1 µM,JNK3,104%
same,remaining activity at 1 µM,OSR1,110%
same,remaining activity at 1 µM,MARK1,115%
same,remaining activity at 1 µM,IGF-1R,88%
same,remaining activity at 1 µM,SRPK1,94%
same,remaining activity at 1 µM,MLK3,10%
same,remaining activity at 1 µM,ERK1,115%
same,remaining activity at 1 µM,CSK,66%
same,remaining activity at 1 µM,PDGFRA,91%
same,remaining activity at 1 µM,PDK1,117%
same,remaining activity at 1 µM,TESK1,77%
Cc1ccc(F)c(S(=O)(=O)Nc2ccc(-c3nc(OC[C@H]4CN(CCCCCCOCCOCCOCC(=O)N[C@H](C(=O)N5C[C@@H](O)C[C@H]5C(=O)NCc5ccc(-c6scnc6C)cc5)C(C)(C)C)CCO4)c4cn[nH]c4n3)cc2)c1 [cisSGK3-PROTAC1],remaining activity at 1 µM,PKB beta; 1 µM,101%
same,remaining activity at 1 µM,PKC alpha; 1 µM,118%
same,remaining activity at 1 µM,IR; 1 µM,94%
same,remaining activity at 1 µM,CHK2; 1 µM,99%
same,remaining activity at 1 µM,VEGFR1; 1 µM,103%
same,remaining activity at 1 µM,ABL; 1 µM,112%
same,remaining activity at 1 µM,ERK5; 1 µM,108%
same,remaining activity at 1 µM,WNK1; 1 µM,97%
same,remaining activity at 1 µM,EIF2AK3; 1 µM,111%
same,remaining activity at 1 µM,JNK3; 1 µM,83%
same,remaining activity at 1 µM,OSR1; 1 µM,118%
same,remaining activity at 1 µM,MARK1; 1 µM,93%
same,remaining activity at 1 µM,IGF-1R; 1 µM,93%
same,remaining activity at 1 µM,SRPK1; 1 µM,104%
same,remaining activity at 1 µM,MLK3; 1 µM,76%
same,remaining activity at 1 µM,ERK1; 1 µM,101%
same,remaining activity at 1 µM,CSK; 1 µM,113%
same,remaining activity at 1 µM,PDGFRA; 1 µM,95%
same,remaining activity at 1 µM,PDK1; 1 µM,87%
same,remaining activity at 1 µM,TESK1; 1 µM,120%
"Cc1ccc(F)c(S(=O)(=O)Nc2ccc(-c3nc(OC[C@H]4CNCCO4)c4cn[nH]c4n3)cc2)c1 [308-R, reference compound]",remaining activity at 1 µM,PKB beta,35%
same,remaining activity at 1 µM,PKC alpha,135%
same,remaining activity at 1 µM,IR,110%
same,remaining activity at 1 µM,CHK2,24%
same,remaining activity at 1 µM,VEGFR1,95%
same,remaining activity at 1 µM,ABL,96%
same,remaining activity at 1 µM,ERK5,73%
same,remaining activity at 1 µM,WNK1,75%
same,remaining activity at 1 µM,EIF2AK3,63%
same,remaining activity at 1 µM,JNK3,112%
same,remaining activity at 1 µM,OSR1,75%
same,remaining activity at 1 µM,MARK1,109%
same,remaining activity at 1 µM,IGF-1R,95%
same,remaining activity at 1 µM,SRPK1,119%
same,remaining activity at 1 µM,MLK3,24%
same,remaining activity at 1 µM,ERK1,106%
same,remaining activity at 1 µM,CSK,96%
same,remaining activity at 1 µM,PDGFRA,115%
same,remaining activity at 1 µM,PDK1,88%
same,remaining activity at 1 µM,TESK1,69%
